The target in this assay is T1, human RORgT (Homo sapiens, UniProt P51449).
T1 construct: expressed in transfected cells
T1 sequence (P51449 267-516): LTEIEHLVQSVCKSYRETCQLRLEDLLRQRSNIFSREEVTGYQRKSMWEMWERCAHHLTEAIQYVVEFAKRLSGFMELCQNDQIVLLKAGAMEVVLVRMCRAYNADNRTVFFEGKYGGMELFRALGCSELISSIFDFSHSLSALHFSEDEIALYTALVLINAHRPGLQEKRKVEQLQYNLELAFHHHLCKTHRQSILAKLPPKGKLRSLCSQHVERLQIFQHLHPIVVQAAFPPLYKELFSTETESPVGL
Nature of the assay: RORgT Gal4 Luciferase Reporter Gene Assay. The class given is cell-based. As to conditions: engineered Jurkat cells overexpressing RORgT (LBD or full length) fused with Gal4 Luc reporter; 18 hours at 37° C.; luminescence. Summed up:
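Jurkat cells expressing Gal4 Luc with either RORgT LBD (aa267-516) or full-length human RORgT, 10,000 cells/well, treated with compound (40 µM to 0.67 nM final, 3-fold dilutions) for 18 h at 37° C. Steady-Glo luminescence read; inhibition of constitutive activity as % signal-window reduction relative to a control compound.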
(In general: In a reporter assay the amount or activity of a reporter protein is the signal.)
The term EC50 denotes the concentration needed to bring the measured effect to its halfway point. `O=C(N1CC(O)C1)N1CC[C@@]2(S(=O)(=O)c3ccccc3)c3ccc(OCc4c(Cl)cccc4Cl)cc3CC[C@@H]12` [Example 88, 1-[(3aR,9bR)-9b-(benzenesulfonyl)-7-[(2,6-dichlorophenyl)methoxy]-1H,2H,3H,3aH,4H,5H,9bH-benzo[e]indole-3-carbonyl] azetidin-3-ol] had an EC50 of 301 nM.

In the case of `O=C(NC1CCOCC1)N1CC[C@@]2(S(=O)(=O)c3ccccc3)c3ccc(OCc4c(Cl)cccc4Cl)cc3CC[C@@H]12` [Example 89, (3aR,9bR)-9b-(benzenesulfonyl)-7-[(2,6-dichlorophenyl)methoxy]-N-(oxan-4-yl)-1H,2H,3H,3aH,4H,5H,9bH-benzo[e]indole-3-carboxamide], a half-maximal effect (EC50) was put at 114 nM.

`CS(=O)(=O)N[C@@H]1CCCN(C(=O)N2CC[C@@]3(S(=O)(=O)c4ccccc4)c4ccc(OCc5c(Cl)cccc5Cl)cc4CC[C@@H]23)C1` [Example 90, N-[(3R)-1-[(3aR,9bR)-9b-(benzenesulfonyl)-7-[(2,6-dichlorophenyl)methoxy]-1H,2H,3H,3aH,4H,5H,9bH-benzo[e]indole-3-carbonyl]piperidin-3-yl]methanesulfonamide] returned an EC50 of 712 nM.

For the compound `CC(C)(O)CNC(=O)N1CC[C@@]2(S(=O)(=O)c3ccccc3)c3ccc(OCc4c(Cl)cccc4Cl)cc3CC[C@@H]12` [Example 91, (3aR,9bR)-9b-(benzenesulfonyl)-7-[(2,6-dichlorophenyl)methoxy]-N-(2-hydroxy-2-methylpropyl)-1H,2H,3H,3aH,4H,5H,9bH-benzo[e]indole-3-carboxamide], the response was half-maximal at 104 nM (EC50).

Take `CS(=O)(=O)CCNC(=O)N1CC[C@@]2(S(=O)(=O)c3ccccc3)c3ccc(OCc4c(Cl)cccc4Cl)cc3CC[C@@H]12` [Example 92, (3aR,9bR)-9b-(benzenesulfonyl)-7-[(2,6-dichlorophenyl)methoxy]-N-(2-methanesulfonylethyl)-1H,2H,3H,3aH,4H,5H,9bH-benzo[e]indole-3-carboxamide]: the EC50 turned out to be 197 nM.

Consider `CS(=O)(=O)C1CCN(C(=O)N2CC[C@@]3(S(=O)(=O)c4ccccc4)c4ccc(OCc5c(Cl)cccc5Cl)cc4CC[C@@H]23)C1` (stereo partly drawn) [Example 93, 1-[(3aR,9bR)-9b-(benzenesulfonyl)-7-[(2,6-dichlorophenyl)methoxy]-1H,2H,3H,3aH,4H,5H,9bH-benzo[e]indole-3-carbonyl]-3-methanesulfonylpyrrolidine], for which a half-maximal effect (EC50) was put at 290 nM. This EC50 and that of the compound before are within 1.5-fold of each other.

Regarding `CC(=O)N1CCN(C(=O)N2CC[C@@]3(S(=O)(=O)c4ccccc4)c4ccc(OCc5c(Cl)cccc5Cl)cc4CC[C@@H]23)CC1` [Example 94, 1-{4-[(3aR,9bR)-9b-(benzenesulfonyl)-7-[(2,6-dichlorophenyl)methoxy]-1H,2H,3H,3aH,4H,5H,9bH-benzo[e]indole-3-carbonyl]piperazin-1-yl}ethan-1-one], the EC50 was determined as 15 nM.

`O=C(Nc1ccnnc1)N1CC[C@@]2(S(=O)(=O)c3ccccc3)c3ccc(OCc4c(Cl)cccc4Cl)cc3CC[C@@H]12` [Example 95, (3aR,9bR)-9b-(benzenesulfonyl)-7-[(2,6-dichlorophenyl)methoxy]-N-(pyridazin-4-yl)-1H,2H,3H,3aH,4H,5H,9bH-benzo[e]indole-3-carboxamide] yielded an EC50 of 194 nM.

Compound `O=C(N1CC[C@@]2(S(=O)(=O)c3ccccc3)c3ccc(OCc4c(Cl)cccc4Cl)cc3CC[C@@H]12)C1(O)CCOCC1` [Example 96, 4-[(3aR,9bR)-9b-(benzenesulfonyl)-7-[(2,6-dichlorophenyl)methoxy]-1H,2H,3H,3aH,4H,5H,9bH-benzo[e]indole-3-carbonyl]oxan-4-ol] displayed an EC50 of 13 nM. This EC50 lies about 15-fold lower than the previous one.

Regarding `CN1CCCC(C(=O)N2CC[C@@]3(S(=O)(=O)c4ccccc4)c4ccc(OCc5c(Cl)cccc5Cl)cc4CC[C@@H]23)C1` (stereo partly drawn) [Example 97, 3-[(3aR,9bR)-9b-(benzenesulfonyl)-7-[(2,6-dichlorophenyl)methoxy]-1H,2H,3H,3aH,4H,5H,9bH-benzo[e]indole-3-carbonyl]-1-methylpiperidine], the 50% effective concentration (EC50) is 846 nM.

As for `CS(=O)(=O)N1CC(C(=O)N2CC[C@@]3(S(=O)(=O)c4ccccc4)c4ccc(OCc5c(Cl)cccc5Cl)cc4CC[C@@H]23)C1` [Example 98, 3-[(3aR,9bR)-9b-(benzenesulfonyl)-7-[(2,6-dichlorophenyl)methoxy]-1H,2H,3H,3aH,4H,5H,9bH-benzo[e]indole-3-carbonyl]-1-methanesulfonylazetidine], the EC50 came to 19 nM.

In the case of `CS(=O)(=O)n1cc(C(=O)N2CC[C@@]3(S(=O)(=O)c4ccccc4)c4ccc(OCc5c(Cl)cccc5Cl)cc4CC[C@@H]23)cn1` [Example 99, 4-[(3aR,9bR)-9b-(benzenesulfonyl)-7-[(2,6-dichlorophenyl)methoxy]-1H,2H,3H,3aH,4H,5H,9bH-benzo[e]indole-3-carbonyl]-1-methanesulfonyl-1H-pyrazole], the midpoint of the response, the EC50, lay at 748 nM.

With `Cn1cc(C(=O)N2CC[C@@]3(S(=O)(=O)c4ccccc4)c4ccc(OCc5c(Cl)cccc5Cl)cc4CC[C@@H]23)cn1` [Example 100, 4-[(3aR,9bR)-9b-(benzenesulfonyl)-7-[(2,6-dichlorophenyl)methoxy]-1H,2H,3H,3aH,4H,5H,9bH-benzo[e]indole-3-carbonyl]-1-methyl-1H-pyrazole], the response was half-maximal at 317 nM (EC50).

In turn, `O=C(NC1CCS(=O)(=O)C1)N1CC[C@@]2(S(=O)(=O)c3ccccc3)c3ccc(OCc4c(Cl)cccc4Cl)cc3CC[C@@H]12` (stereo partly drawn) [Example 101, (3aR,9bR)-9b-(benzenesulfonyl)-7-[(2,6-dichlorophenyl)methoxy]-N-(1,1-dioxo-1λ^6-thiolan-3-yl)-1H,2H,3H,3aH,4H,5H,9bH-benzo[e]indole-3-carboxamide] came in with an EC50 of 62 nM. This EC50 is about 5.1-fold lower than that of the compound before.

In the case of `CC(C)S(=O)(=O)CC(=O)N1CC[C@@]2(S(=O)(=O)c3ccccc3)c3ccc(OCc4c(Cl)cccc4Cl)cc3CC[C@@H]12` [Example 102, 1-[(3aR,9bR)-9b-(benzenesulfonyl)-7-[(2,6-dichlorophenyl)methoxy]-1H,2H,3H,3aH,4H,5H,9bH-benzo[e]indol-3-yl]-2-(propane-2-sulfonyl)ethan-1-one], the response was half-maximal at 620 nM (EC50).

The compound `CS(=O)(=O)N1CCC(CCC(=O)N2CC[C@@]3(S(=O)(=O)c4ccccc4)c4ccc(OCc5c(Cl)cccc5Cl)cc4CC[C@@H]23)CC1` [Example 103, 1-[(3aR,9bR)-9b-(benzenesulfonyl)-7-[(2,6-dichlorophenyl)methoxy]-1H,2H,3H,3aH,4H,5H,9bH-benzo[e]indol-3-yl]-3-(1-methanesulfonylpiperidin-4-yl)propan-1-one] returned an EC50 of 259 nM.

`O=C(N1CC[C@@]2(S(=O)(=O)c3ccc(F)cc3)c3ccc(OCc4ccc(F)cc4Cl)cc3CC[C@@H]12)C1(O)CCS(=O)(=O)CC1` [Example 104, 4-[(3aR,9bR)-7-[(2-chloro-4-fluorophenyl)methoxy]-9b-(4-fluorobenzenesulfonyl)-1H,2H,3H,3aH,4H,5H,9bH-benzo[e]indole-3-carbonyl]-4-hydroxy-1λ^6-thiane-1,1-dione]: the midpoint of the response, the EC50, lay at 5.6 nM.

`O=C(N1CC[C@@]2(S(=O)(=O)c3ccccc3)c3ccc(OCc4c(Cl)cccc4Cl)cc3CC[C@@H]12)C1(O)CCS(=O)(=O)CC1` [Example 105, 4-[(3aR,9bR)-9b-(benzenesulfonyl)-7-[(2,6-dichlorophenyl)methoxy]-1H,2H,3H,3aH,4H,5H,9bH-benzo[e]indole-3-carbonyl]-4-hydroxy-1λ^6-thiane-1,1-dione] had an EC50 of 7.9 nM.

For the compound `NC(=O)[C@H]1CC[C@H](C(=O)N2CC[C@@]3(S(=O)(=O)c4ccccc4)c4ccc(OCc5c(Cl)cccc5Cl)cc4CC[C@@H]23)CC1` [Example 106, (1r,4r)-4-[(3aR,9bR)-9b-(benzenesulfonyl)-7-[(2,6-dichlorophenyl)methoxy]-1H,2H,3H,3aH,4H,5H,9bH-benzo[e]indole-3-carbonyl]cyclohexane-1-carboxamide], it took 2.8 nM to reach a half-maximal effect (EC50).

For `CC(=O)N[C@H]1CC[C@H](C(=O)N2CC[C@@]3(S(=O)(=O)c4ccc(F)cc4)c4ccc(OCc5c(F)cccc5C(F)(F)F)cc4CC[C@@H]23)CC1` [Example 108, N-[(1r,4r)-4-[(3aR,9bR)-7-{[2-fluoro-6-(trifluoromethyl)phenyl]methoxy} -9b-(4-fluorobenzenesulfonyl)-1H,2H,3H,3aH,4H,5H,9bH-benzo[e]indole-3-carbonyl]cyclohexyl]acetamide], a half-maximal effect (EC50) was put at 131 nM.

In turn, `O=C(O)[C@H]1CC[C@H](C(=O)N2CC[C@@]3(S(=O)(=O)c4ccc(Cl)cc4)c4ccc(OCc5c(F)cccc5C(F)(F)F)cc4CC[C@@H]23)CC1` [Example 111, (1r,4r)-4-[(3aR,9bR)-9b-(4-chlorobenzenesulfonyl)-7-{[2-fluoro-6-(trifluoromethyl)phenyl]methoxy} -1H,2H,3H,3aH,4H,5H,9bH-benzo[e]indole-3-carbonyl]cyclohexane-1-carboxylic acid] yielded an EC50 of 2.7 nM.

On to `O=C(O)[C@H]1CC[C@](O)(C(=O)N2CC[C@@]3(S(=O)(=O)c4ccc(F)cc4)c4ccc(OCc5cc(Cl)ccc5Cl)cc4CC[C@@H]23)CC1` [Example 112, (1 s,4 s)-4-[(3aR,9bR)-7-[(2,5-dichlorophenyl)methoxy]-9b-(4-fluorobenzenesulfonyl)-1H,2H,3H,3aH,4H,5H,9bH-benzo[e]indole-3-carbonyl] -4-hydroxycyclohexane-1-carboxylic acid], for which the EC50 was 3.6 nM.

(Values after US20230295087A1, “AGONISTS OF ROR GAMMAt” (BRISTOL-MYERS SQUIBB COMPANY, priority 2019, published 2023).)
